In patent US10660333B2, “Substituted 2-heterocyclylimidazolylcarboxamides as pesticides” (BAYER CROPSCIENCE AKTIENGESELLSCHAFT, priority 2016, dated 2020):
Like-named read-outs stand apart in the source and are kept apart here.

Assays:
[1] = log P by HPLC on reversed-phase (C18) columns, OECD Guideline 117; assay type: physicochemical
Myzus persicae [2] = assay: Myzus persicae - spray test; assay type: in vivo; conditions: for pest or weed control at 500 g/ha: Myzus persicae, foliar, 120 h, read-out: efficacy (aphids killed)
Procedure: Myzus persicae—Spray Test
To produce a suitable active ingredient formulation, 1 part by weight of active ingredient is dissolved with the specified parts by weight of solvent and made up to the desired concentration with water containing an emulsifier concentration of 1000 ppm. To produce further test concentrations, the formulation is diluted with emulsifier-containing water.
Discs of Chinese cabbage leaves (Brassica pekinensis) infested by all stages of the green peach aphid (Myzus persicae) are sprayed with an active ingredient formulation of the desired concentration.
(§1) After 5 days, the efficacy in % is determined. 100% means that all the aphids have been killed; 0% means that no aphids have been killed.

Myzus persicae [3] = assay: Myzus persicae - oral test; assay type: in vivo; conditions: for pest or weed control at 4 ppm: Myzus persicae, 120 h, read-out: efficacy (aphids killed)
Procedure: To produce a suitable active ingredient formulation, 1 part by weight of active ingredient is dissolved with the specified parts by weight of solvent and made up to the desired concentration with water.
50 μl of the active ingredient formulation are transferred into microtitre plates and made up to a final volume of 200 μl with 150 μl of IPL41 insect medium (33%+15% sugar). Subsequently, the plates are sealed with parafilm, which a mixed population of green peach aphids (Myzus persicae) within a second microtitre plate is able to puncture and imbibe the solution.
as §1

[4] = HPLC RP C18, acidic range pH 2.7, 0.1% formic acid/acetonitrile
[5] = HPLC RP C18, neutral range pH 7.8, ammonium hydrogencarbonate/acetonitrile
[6] = 500 g/ha, Chinese cabbage leaf discs, after 5 days
[7] = reversed-phase (C18) HPLC column, HPLC RP C18, neutral range pH 7.8, ammonium hydrogencarbonate/acetonitrile, read-out: logP[n]
[8] = reversed-phase (C18) HPLC column, HPLC RP C18, acidic range pH 2.7, 0.1% formic acid/acetonitrile, read-out: logP[a]

| SMILES | logP[a] [1, 4] | logP[n] [1, 5] | efficacy (aphids killed) (Myzus persicae [2]; [6]) [%] | efficacy (aphids killed) (Myzus persicae [3]; 4 ppm, oral, after 5 days) [%] | other results |
| --- | --- | --- | --- | --- | --- |
| CN(C(=O)c1cnc(C2CC(c3c(Cl)cc(C(F)(F)F)cc3Cl)=NO2)n1C)c1cccnc1 (stereo not drawn) [Example I-1-34] | 2.66 | 2.75 | 90 | 100 | – |
| CN(C(=O)c1cnc(C2CC(c3ccc(Cl)cc3Cl)=NO2)n1C)c1cccnc1 (stereo not drawn) [Example I-1-13] | 2.23 | 2.41 | 100 | 100 | – |
| CN(C(=O)c1cnc(C2CC(c3cccc(Cl)c3)=NO2)n1C)c1cccnc1 (stereo not drawn) [Example I-1-10] | 1.88 | 2.10 | 100 | 100 | – |
| CN(C(=O)c1cnc(C2CC(c3ccc(OC(F)(F)F)cc3)=NO2)n1C)c1cccnc1 (stereo not drawn) [Example I-1-33] | 2.28 | 2.42 | 90 | – | – |
| CN(C)C(=O)C1CC(c2ncc(C(=O)N(C)c3cccnc3)n2C)=NO1 (stereo not drawn) [Example I-1-39] | 0.78 | 1.12 | – | – | – |
| CN(C(=O)c1cnc(C2CC(c3cc(Cl)ccc3Cl)=NO2)n1C)c1cccnc1 (stereo not drawn) [Example I-1-14] | 2.13 | 2.32 | 90 | 100 | – |
| COc1ccc(C2=NOC(c3ncc(C(=O)N(C)c4cccnc4)n3C)C2)cc1 (stereo not drawn) [Example I-1-25] | 1.46 | 1.74 | – | 100 | – |
| CN(C(=O)c1cnc(C2=NOC(c3cccnc3)C2)n1C)c1cccnc1 (stereo not drawn) [Example I-1-43] | 0.56 | 1.35 | – | – | – |
| CN(C(=O)c1cnc(C2=NOC(c3ccncc3)C2)n1C)c1cccnc1 (stereo not drawn) [Example I-1-44] | 0.45 | 1.34 | – | – | – |
| CN(C(=O)c1cnc(C=NO)n1C)c1cccnc1 [XVIII-1-1, 2-[(Hydroxyimino)methyl]-N,1-dimethyl-N-(pyridin-3-yl)-1H-imidazole-5-carboxamide] | – | – | – | – | chromatographic logP [1, 7]: 0.51 |
| CN(C(=O)c1cnc(C2CC(c3ccc(C#N)cc3)=NO2)n1C)c1cccnc1 (stereo not drawn) [Example I-1-20] | 1.42 | 1.62 | 90 | 100 | – |
| CN(C(=O)c1cnc(C2=NOC(c3ccccn3)C2)n1C)c1cccnc1 (stereo not drawn) [Example I-1-42] | 1.09 | 1.46 | – | – | – |
| CN(C(=O)c1cnc(C2CC(c3cc(Cl)cc(Cl)c3)=NO2)n1C)c1cccnc1 (stereo not drawn) [Example I-1-17] | 2.39 | 2.61 | 100 | 100 | – |
| CN(C(=O)c1cnc(C2=NOC(c3ccccc3)C2)n1C)c1cccnc1 (stereo not drawn) [Example I-1-40, N,1-Dimethyl-2-(5-phenyl-4,5-dihydro-1,2-oxazol-3-yl)-N-(pyridin-3-yl)-1H-imidazole-5-carboxamide] | – | – | – | – | chromatographic logP [1, 8]: 1.86; chromatographic logP [1, 7]: 1.97; pest or weed control at 500 g/ha (Myzus persicae [2]; [6]): 90%; pest or weed control at 4 ppm (Myzus persicae [3]; 4 ppm, oral, after 5 days): 90% |
| CN(C(=O)c1cnc(C2CC(c3ccc(C(F)(C(F)(F)F)C(F)(F)F)cc3)=NO2)n1C)c1cccnc1 (stereo not drawn) [Example I-1-35] | 3.01 | 3.08 | 100 | 90 | – |
| CCOC(=O)C1=NOC(c2ncc(C(=O)N(C)c3cccnc3)n2C)C1 (stereo not drawn) [Example I-1-5, Ethyl 5-{1-methyl-5-[methyl(pyridin-3-yl)carbamoyl]-1H-imidazol-2-yl}-4,5-dihydro-1,2-oxazole-3-carboxylate] | – | – | – | – | chromatographic logP [1, 8]: 1.04; chromatographic logP [1, 7]: 1.32; pest or weed control at 500 g/ha (Myzus persicae [2]; [6]): 100%; pest or weed control at 4 ppm (Myzus persicae [3]; 4 ppm, oral, after 5 days): 100% |
| CN(C(=O)c1cnc(C2CC(c3cccc(Cl)c3Cl)=NO2)n1C)c1cccnc1 (stereo not drawn) [Example I-1-12] | 2.07 | 2.25 | 100 | 100 | – |
| Cc1ccc(C2=NOC(c3ncc(C(=O)N(C)c4cccnc4)n3C)C2)cc1 (stereo not drawn) [Example I-1-21] | 1.75 | 1.95 | 100 | 100 | – |
| CN(C(=O)c1cnc(C2CC(c3ccccc3C#N)=NO2)n1C)c1cccnc1 (stereo not drawn) [Example I-1-18] | 1.34 | 1.55 | 90 | 100 | – |

| SMILES | logP[a] [1, 4] | logP[n] [1, 5] | efficacy (aphids killed) (Myzus persicae [2]; [6]) [%] | efficacy (aphids killed) (Myzus persicae [3]; 4 ppm, oral, after 5 days) [%] | other results |
| --- | --- | --- | --- | --- | --- |
| CN(C(=O)c1cnc(I)n1C)c1cccnc1 [VI-1-1, 2-Iodo-N,1-dimethyl-N-(pyridin-3-yl)-1H-imidazole-5-carboxamide] | – | – | – | – | chromatographic logP [1, 8]: 0.66; chromatographic logP [1, 7]: 0.97 |
| CN(C(=O)c1cnc(C2CC(c3ccccc3Cl)=NO2)n1C)c1cccnc1 (stereo not drawn) [Example I-1-9] | 1.69 | 1.95 | 100 | 100 | – |
| CC1=NOC(C)(c2ncc(C(=O)N(C)c3cccnc3)n2C)C1 (stereo not drawn) [Example I-1-31] | 0.53 | 0.96 | 90 | 90 | – |
| C=Cc1ncc(C(=O)N(C)c2cccnc2)n1C [VII-1-1, N,1-Dimethyl-N-(pyridin-3-yl)-2-vinyl-1H-imidazole-5-carboxamide] | – | – | – | – | chromatographic logP [1, 7]: 0.82 |
| CN(C(=O)c1cnc(C2=NOC(C3CCCC3)C2)n1C)c1cccnc1 (stereo not drawn) [Example I-1-38] | 2.09 | 2.21 | – | – | – |
| CN(C(=O)c1cnc(C2CC(c3cccnc3)=NO2)n1C)c1cccnc1 (stereo not drawn) [Example I-1-27] | 0.64 | 1.09 | 90 | 100 | – |
| CN(C(=O)c1cnc(C2CC(c3c(Cl)cccc3Cl)=NO2)n1C)c1cccnc1 (stereo not drawn) [Example I-1-15] | 1.87 | 2.10 | 100 | 100 | – |
| CN(C(=O)c1cnc(C2=NCCN2)n1C)c1cccnc1 [Example I-1-45, N,1-Dimethyl-N-(pyridin-3-yl)-4′,5′-dihydro-1H,1′H-2,2′-biimidazole-5-carboxamide] | – | – | – | – | chromatographic logP [1, 7]: 0.54 |
| CN(C(=O)c1cnc(C2CC(c3ccc(Cl)cc3)=NO2)n1C)c1cccnc1 (stereo not drawn) [Example I-1-11] | 1.97 | 2.12 | 100 | 100 | – |
| N#Cc1cccc(C=NO)c1 [IX-19, 3-(Hydroxyimino)methylbenzonitrile] | – | – | – | – | chromatographic logP ([1]; HPLC RP C18, acidic range pH 2.7, 0.1% formic acid/acetonitrile, read-out: logP[a]): 1.2 |
| CN(C(=O)c1cnc(C=O)n1C)c1cccnc1 [XIII-1-1, 2-Formyl-N,1-dimethyl-N-(pyridin-3-yl)-1H-imidazole-5-carboxamide] | – | – | – | – | chromatographic logP [1, 8]: 0.43; chromatographic logP [1, 7]: 0.6 |
| CC(C)C1CC(c2ncc(C(=O)N(C)c3cccnc3)n2C)=NO1 (stereo not drawn) [Example I-1-37] | 1.65 | 1.85 | – | – | – |
| CN(C(=O)c1cnc(C#N)n1C)c1cccnc1 [XXIII-1-1, 2-Cyano-N,1-dimethyl-N-(pyridin-3-yl)-1H-imidazole-5-carboxamide] | – | – | – | – | chromatographic logP [1, 8]: 0.63; chromatographic logP [1, 7]: 0.85 |
| CN(C(=O)c1cnc(C2=CC(=O)OC2)n1C)c1cccnc1 [Example I-1-47, N,1-Dimethyl-2-(5-oxo-2,5-dihydrofuran-3-yl)-N-(pyridin-3-yl)-1H-imidazole-5-carboxamide] | – | – | – | – | chromatographic logP [1, 8]: 0.46; chromatographic logP [1, 7]: 0.72; pest or weed control at 500 g/ha (Myzus persicae [2]; in Brassica rapa): 90%; pest or weed control at 4 ppm (Myzus persicae [3]; po): 100% |
| CN(C(=O)c1cnc(C2CC(c3ccc(Cl)c(Cl)c3)=NO2)n1C)c1cccnc1 (stereo not drawn) [Example I-1-16] | 2.27 | 2.48 | 100 | 100 | – |
| CN1CCN=C1c1ncc(C(=O)N(C)c2cccnc2)n1C [Example I-1-46] | – | 0.74 | – | – | – |
| CN(C(=O)c1cnc(C2=NOC(c3ccc(C(F)(F)F)cc3)C2)n1C)c1cccnc1 (stereo not drawn) [Example I-1-41] | 2.49 | 2.60 | – | – | – |
| CN(C)C(=O)C1=NOC(c2ncc(C(=O)N(C)c3cccnc3)n2C)C1 (stereo not drawn) [Example I-1-6] | 0.77 | 0.97 | 100 | 100 | – |
